# According to ChEMBL document CHEMBL1240489, “Discovery of N-{1-[3-(3-oxo-2,3-dihydrobenzo[1,4]oxazin-4-yl)propyl]piperidin-4-yl}-2-phenylacetamide (Lu AE51090): an allosteric muscarinic M1 receptor agonist with unprecedented selectivity and procognitive potential” (J Med Chem, 2010):
# Tests used:
# [1] = target: T1, Muscarinic acetylcholine receptor M1 (Homo sapiens) (UniProt P11229); assay: Agonist activity at human muscarinic M1 receptor expressed in CHO-K1 cells assessed as increase of acetylcholine-induced calcium flux by FLIPR assay relative to acetylcholine; type: functional, cell-based
# T1 sequence (whole entry): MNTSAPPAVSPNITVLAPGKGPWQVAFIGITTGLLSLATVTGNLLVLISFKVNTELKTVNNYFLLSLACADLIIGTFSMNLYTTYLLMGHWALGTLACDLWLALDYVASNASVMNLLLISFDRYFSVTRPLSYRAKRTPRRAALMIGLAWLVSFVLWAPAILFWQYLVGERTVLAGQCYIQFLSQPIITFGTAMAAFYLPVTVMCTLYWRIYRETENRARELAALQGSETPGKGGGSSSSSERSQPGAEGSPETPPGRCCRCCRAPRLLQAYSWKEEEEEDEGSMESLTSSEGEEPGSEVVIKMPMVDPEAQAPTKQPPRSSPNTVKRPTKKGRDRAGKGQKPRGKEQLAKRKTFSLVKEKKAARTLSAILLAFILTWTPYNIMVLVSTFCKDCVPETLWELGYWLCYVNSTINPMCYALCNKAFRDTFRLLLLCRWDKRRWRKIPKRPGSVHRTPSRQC
# [2] = target: T2, Muscarinic acetylcholine receptor M1 (Homo sapiens, UniProt P11229)
# T2 sequence (P11229 whole entry): T1 sequence (whole entry)
# [3] = target: T1, Muscarinic acetylcholine receptor M1 (Homo sapiens); assay: Agonist activity at human muscarinic M1 receptor expressed in CHO-K1 cells assessed as increase of acetylcholine-induced calcium flux at 10 uM by FLIPR assay relative to acetylcholine; type: functional, cell-based
# [4] = target: T3, Muscarinic acetylcholine receptor M2 (Homo sapiens) (UniProt P08172); assay: Agonist activity at human muscarinic M2 receptor expressed in CHO-K1 cells coexpressing Galpha16 subunit assessed as increase of acetylcholine-induced calcium flux at 10 uM by FLIPR assay relative to acetylcholine; type: functional, cell-based
# T3 sequence (whole entry): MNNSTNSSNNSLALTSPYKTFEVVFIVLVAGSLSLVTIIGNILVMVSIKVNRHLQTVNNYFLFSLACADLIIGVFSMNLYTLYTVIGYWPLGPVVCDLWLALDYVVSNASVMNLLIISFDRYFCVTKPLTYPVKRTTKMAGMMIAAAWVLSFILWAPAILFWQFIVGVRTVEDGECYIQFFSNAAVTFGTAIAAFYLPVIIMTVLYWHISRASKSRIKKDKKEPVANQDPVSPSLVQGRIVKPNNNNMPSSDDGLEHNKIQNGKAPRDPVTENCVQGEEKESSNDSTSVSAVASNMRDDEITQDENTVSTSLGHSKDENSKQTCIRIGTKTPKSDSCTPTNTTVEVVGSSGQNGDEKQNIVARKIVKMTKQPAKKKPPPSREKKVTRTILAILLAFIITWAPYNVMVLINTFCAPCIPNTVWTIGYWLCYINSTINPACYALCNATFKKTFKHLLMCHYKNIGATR
# [5] = target: T4, Muscarinic acetylcholine receptor M3 (Homo sapiens, UniProt P20309); assay: Agonist activity at human muscarinic M3 receptor expressed in BHK-21 cells assessed as increase of acetylcholine-induced calcium flux at 10 uM by FLIPR assay relative to acetylcholine; type: functional, cell-based
# Target sequence in this assay (P20309 whole entry, looked up): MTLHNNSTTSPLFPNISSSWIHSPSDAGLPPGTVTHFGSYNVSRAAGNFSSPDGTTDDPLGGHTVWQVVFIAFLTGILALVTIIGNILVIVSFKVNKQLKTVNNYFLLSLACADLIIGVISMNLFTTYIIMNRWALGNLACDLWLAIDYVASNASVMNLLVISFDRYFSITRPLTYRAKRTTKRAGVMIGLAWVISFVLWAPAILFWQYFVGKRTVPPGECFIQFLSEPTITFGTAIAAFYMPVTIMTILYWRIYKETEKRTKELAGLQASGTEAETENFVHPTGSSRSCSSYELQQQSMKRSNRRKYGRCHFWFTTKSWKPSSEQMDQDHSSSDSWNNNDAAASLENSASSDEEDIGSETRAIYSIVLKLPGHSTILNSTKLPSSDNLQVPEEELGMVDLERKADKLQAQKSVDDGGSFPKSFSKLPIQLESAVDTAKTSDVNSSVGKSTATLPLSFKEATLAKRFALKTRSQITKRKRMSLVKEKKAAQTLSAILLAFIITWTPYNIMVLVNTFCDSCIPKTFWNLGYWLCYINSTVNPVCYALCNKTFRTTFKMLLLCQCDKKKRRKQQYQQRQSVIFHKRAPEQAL
# [6] = target: T5, Muscarinic acetylcholine receptor M4 (Homo sapiens) (UniProt P08173); assay: Agonist activity at human muscarinic M4 receptor expressed in BHK-21 cells coexpressing Galpha16 subunit assessed as increase of acetylcholine-induced calcium flux at 10 uM by FLIPR assay relative to acetylcholine; type: functional, cell-based
# T5 sequence (whole entry): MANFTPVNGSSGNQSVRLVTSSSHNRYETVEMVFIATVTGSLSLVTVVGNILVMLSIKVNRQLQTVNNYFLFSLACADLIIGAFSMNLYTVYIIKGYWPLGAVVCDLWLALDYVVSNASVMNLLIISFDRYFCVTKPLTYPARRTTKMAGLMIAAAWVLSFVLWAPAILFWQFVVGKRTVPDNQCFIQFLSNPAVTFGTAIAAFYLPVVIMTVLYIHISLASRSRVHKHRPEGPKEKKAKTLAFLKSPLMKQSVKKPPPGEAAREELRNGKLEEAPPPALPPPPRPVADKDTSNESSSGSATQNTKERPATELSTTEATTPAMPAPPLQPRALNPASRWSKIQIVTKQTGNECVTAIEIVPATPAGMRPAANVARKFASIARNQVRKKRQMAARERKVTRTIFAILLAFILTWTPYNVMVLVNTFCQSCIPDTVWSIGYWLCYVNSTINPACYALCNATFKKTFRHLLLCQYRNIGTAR
# [7] = target: T6, Muscarinic acetylcholine receptor M5 (Homo sapiens) (UniProt P08912); assay: Agonist activity at human muscarinic M5 receptor expressed in BHK-21 cells assessed as increase of acetylcholine-induced calcium flux at 10 uM by FLIPR assay relative to acetylcholine; type: functional, cell-based
# T6 sequence (whole entry): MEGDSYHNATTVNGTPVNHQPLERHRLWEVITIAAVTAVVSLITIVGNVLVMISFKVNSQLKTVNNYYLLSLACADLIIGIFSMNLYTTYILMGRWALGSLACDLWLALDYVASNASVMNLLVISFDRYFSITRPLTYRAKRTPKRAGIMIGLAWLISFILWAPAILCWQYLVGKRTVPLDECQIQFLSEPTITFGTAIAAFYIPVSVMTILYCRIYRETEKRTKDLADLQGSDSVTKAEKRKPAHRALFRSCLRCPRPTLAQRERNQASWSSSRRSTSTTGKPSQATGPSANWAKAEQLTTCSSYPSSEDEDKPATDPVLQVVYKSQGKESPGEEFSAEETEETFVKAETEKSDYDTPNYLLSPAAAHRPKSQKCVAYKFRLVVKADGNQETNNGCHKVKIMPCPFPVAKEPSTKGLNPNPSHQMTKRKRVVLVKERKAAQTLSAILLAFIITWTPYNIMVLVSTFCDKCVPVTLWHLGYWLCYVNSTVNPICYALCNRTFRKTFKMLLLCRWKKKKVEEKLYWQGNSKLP
# [8] = target: T5, Muscarinic acetylcholine receptor M4 (Homo sapiens); assay: Agonist activity at human muscarinic M4 receptor expressed in BHK-21 cells coexpressing Galpha16 subunit assessed as increase of acetylcholine-induced calcium flux by FLIPR assay relative to acetylcholine; type: functional, cell-based
# [9] = target: T7, Muscarinic acetylcholine receptor M5 (Homo sapiens, UniProt P08912); assay: Agonist activity at human muscarinic M5 receptor expressed in BHK-21 cells assessed as increase of acetylcholine-induced calcium flux by FLIPR assay; type: functional, cell-based
# T7 sequence (P08912 whole entry): T6 sequence (whole entry)
# [10] = target: T6, Muscarinic acetylcholine receptor M5 (Homo sapiens); assay: Agonist activity at human muscarinic M5 receptor expressed in BHK-21 cells assessed as increase of acetylcholine-induced calcium flux by FLIPR assay relative to acetylcholine; type: functional, cell-based
# [11] = target: T8, Muscarinic acetylcholine receptor M2 (Homo sapiens, UniProt P08172); assay: Displacement of [3H]-AFDX-384 from human muscarinic M2 receptor expressed in CHO-K1 cells; type: cell-based
# T8 sequence (P08172 whole entry): T3 sequence (whole entry)
# [12] = target: T4, Muscarinic acetylcholine receptor M3; assay: Displacement of [3H]-4-DAMP from human muscarinic M3 receptor expressed in BHK-21 cells; type: cell-based
# Target sequence in this assay (P20309 whole entry): as the sequence (P20309 whole entry, looked up) above
# [13] = tested on: Muscarinic acetylcholine receptor M1 (Homo sapiens), P11229 [Y381A]; assay: Agonist activity at human muscarinic M1 receptor Y381A mutant expressed in CHO-K1 cells assessed as increase of acetylcholine-induced calcium flux by FLIPR assay relative to acetylcholine; type: functional, cell-based
# Chain of Muscarinic acetylcholine receptor M1 (Homo sapiens), P11229 [Y381A] (P11229 whole entry Y381A): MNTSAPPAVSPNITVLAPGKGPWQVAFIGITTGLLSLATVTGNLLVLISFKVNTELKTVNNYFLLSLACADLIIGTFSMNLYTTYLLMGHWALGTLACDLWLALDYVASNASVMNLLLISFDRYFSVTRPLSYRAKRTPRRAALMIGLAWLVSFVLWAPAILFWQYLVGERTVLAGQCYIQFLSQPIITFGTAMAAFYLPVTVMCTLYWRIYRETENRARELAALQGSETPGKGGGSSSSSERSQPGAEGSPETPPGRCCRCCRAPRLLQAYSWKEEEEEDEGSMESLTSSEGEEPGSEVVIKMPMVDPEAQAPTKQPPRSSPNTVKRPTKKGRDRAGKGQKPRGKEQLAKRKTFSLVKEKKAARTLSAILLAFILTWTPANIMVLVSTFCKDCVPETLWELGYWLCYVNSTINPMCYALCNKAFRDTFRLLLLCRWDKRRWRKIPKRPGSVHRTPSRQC
# [14] = target: Muscarinic acetylcholine receptor M1 (Homo sapiens, UniProt P11229, Y381A)
# Chain of Muscarinic acetylcholine receptor M1 (Homo sapiens, UniProt P11229, Y381A) (P11229 whole entry Y381A): as above
# [15] = target: T7, Muscarinic acetylcholine receptor M5; assay: biochemical
# Description: Displacement of [3H]-4-DAMP from human muscarinic M5 receptor expressed in BHK-21 cells
# [16] = target: 5-hydroxytryptamine receptor 2C (Homo sapiens, UniProt P28335); assay: Binding affinity to human 5HT2C receptor agonist site by radioligand displacement assay
# Chain of 5-hydroxytryptamine receptor 2C (P28335 whole entry): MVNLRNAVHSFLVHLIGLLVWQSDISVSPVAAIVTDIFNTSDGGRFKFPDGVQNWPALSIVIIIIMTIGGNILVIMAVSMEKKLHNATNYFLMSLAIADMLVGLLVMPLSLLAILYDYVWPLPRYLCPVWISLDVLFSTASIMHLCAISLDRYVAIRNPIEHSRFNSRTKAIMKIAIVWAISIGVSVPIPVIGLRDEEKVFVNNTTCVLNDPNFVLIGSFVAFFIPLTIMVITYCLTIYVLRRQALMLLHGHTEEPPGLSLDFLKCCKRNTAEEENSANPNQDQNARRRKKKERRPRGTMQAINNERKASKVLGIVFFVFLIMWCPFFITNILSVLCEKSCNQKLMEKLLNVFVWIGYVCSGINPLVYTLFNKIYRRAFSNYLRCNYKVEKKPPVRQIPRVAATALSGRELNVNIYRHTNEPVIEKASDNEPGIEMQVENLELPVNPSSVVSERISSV
# [17] = target: Alpha-1A adrenergic receptor (Homo sapiens, UniProt P35348); assay: Binding affinity to human adrenergic alpha1A receptor by radioligand displacement assay
# Chain of Alpha-1A adrenergic receptor (P35348 whole entry): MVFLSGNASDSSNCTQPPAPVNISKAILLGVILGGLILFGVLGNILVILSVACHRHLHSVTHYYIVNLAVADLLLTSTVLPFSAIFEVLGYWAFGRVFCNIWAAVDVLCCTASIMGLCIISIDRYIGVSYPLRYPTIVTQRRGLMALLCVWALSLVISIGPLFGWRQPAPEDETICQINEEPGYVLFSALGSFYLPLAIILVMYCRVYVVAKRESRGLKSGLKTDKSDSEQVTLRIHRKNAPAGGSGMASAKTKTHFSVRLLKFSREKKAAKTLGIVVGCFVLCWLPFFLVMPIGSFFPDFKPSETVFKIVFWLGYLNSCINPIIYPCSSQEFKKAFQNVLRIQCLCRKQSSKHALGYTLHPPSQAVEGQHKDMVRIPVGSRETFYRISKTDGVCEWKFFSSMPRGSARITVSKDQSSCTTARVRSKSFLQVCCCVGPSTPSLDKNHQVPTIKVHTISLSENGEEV
# [18] = target: Alpha-1B adrenergic receptor (Homo sapiens, UniProt P35368); assay: Binding affinity to human adrenergic Alpha-1B receptor by radioligand displacement assay
# Chain of Alpha-1B adrenergic receptor (P35368 whole entry): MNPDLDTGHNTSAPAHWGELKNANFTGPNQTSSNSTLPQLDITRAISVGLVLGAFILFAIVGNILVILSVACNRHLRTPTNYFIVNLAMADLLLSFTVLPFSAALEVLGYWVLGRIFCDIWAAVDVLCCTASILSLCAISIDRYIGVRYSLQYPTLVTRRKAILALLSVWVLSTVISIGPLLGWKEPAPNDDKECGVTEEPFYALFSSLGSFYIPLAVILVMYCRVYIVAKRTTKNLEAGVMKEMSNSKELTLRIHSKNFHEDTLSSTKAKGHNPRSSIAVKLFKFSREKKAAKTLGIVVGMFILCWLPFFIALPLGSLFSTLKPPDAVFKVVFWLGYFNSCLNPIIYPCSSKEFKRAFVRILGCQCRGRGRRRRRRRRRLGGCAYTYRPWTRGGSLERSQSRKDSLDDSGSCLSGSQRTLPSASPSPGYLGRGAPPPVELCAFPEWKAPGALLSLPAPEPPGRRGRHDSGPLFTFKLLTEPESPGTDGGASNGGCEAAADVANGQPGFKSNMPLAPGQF
# [19] = target: Alpha-1D adrenergic receptor (Homo sapiens, UniProt P25100); assay: Binding affinity to human adrenergic Alpha-1D receptor by radioligand displacement assay
# Chain of Alpha-1D adrenergic receptor (P25100 whole entry): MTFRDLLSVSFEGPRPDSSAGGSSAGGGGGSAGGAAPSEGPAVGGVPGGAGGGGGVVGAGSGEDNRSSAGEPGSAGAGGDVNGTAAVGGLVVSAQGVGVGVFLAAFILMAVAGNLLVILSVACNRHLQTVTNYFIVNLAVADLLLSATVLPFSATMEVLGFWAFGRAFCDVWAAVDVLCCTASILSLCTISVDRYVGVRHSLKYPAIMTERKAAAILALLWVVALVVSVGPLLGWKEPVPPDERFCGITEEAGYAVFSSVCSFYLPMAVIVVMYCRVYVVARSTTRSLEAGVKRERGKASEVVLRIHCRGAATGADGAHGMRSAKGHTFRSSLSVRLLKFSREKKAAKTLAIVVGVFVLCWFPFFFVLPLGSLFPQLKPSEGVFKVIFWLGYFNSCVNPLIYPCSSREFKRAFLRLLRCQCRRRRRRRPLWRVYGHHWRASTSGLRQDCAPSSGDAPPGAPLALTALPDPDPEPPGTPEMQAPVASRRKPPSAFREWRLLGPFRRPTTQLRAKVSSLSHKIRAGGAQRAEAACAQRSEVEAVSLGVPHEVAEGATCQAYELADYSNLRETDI
Emax [1],EC50 [2],SMILES,other results
74%,0.18 µM,CC(=O)NC1CCN(CCCN2C(=O)COc3ccccc32)CC1,–
89%,0.015 µM,O=C(Cc1ccccc1)NC1CCN(CCCN2C(=O)CCc3cc(F)c(F)cc32)CC1,–
79%,0.049 µM,O=C(Cc1ccccc1)NC1CCN(CCCN2C(=O)CCc3cc(F)ccc32)CC1,–
84%,0.56 µM,COc1ccc2c(c1)CCC(=O)N2CCCN1CCC(NC(=O)Cc2ccccc2)CC1,–
83%,0.02 µM,CCC(=O)NC1CCN(CCCN2C(=O)CCc3ccc(F)cc32)CC1,–
90%,0.019 µM,CCC(=O)NC1CCN(CCCN2C(=O)CCc3c(F)cccc32)CC1,–
83%,0.009 µM,CCC(=O)NC1CCN(CCCN2C(=O)CCc3cc(F)ccc32)CC1,–
76%,0.086 µM,CC(=O)NC1CCN(CCCN2C(=O)CCc3cc(F)c(F)cc32)CC1,–
88%,0.01 µM,CCC(=O)NC1CCN(CCCN2C(=O)COc3cc(F)c(F)cc32)CC1,–
78%,0.31 µM,CCC(=O)NC1CCN(CCCN2C(=O)CCc3cccc(F)c32)CC1,–
86%,0.051 µM,O=C(Cc1ccccc1)NC1CCN(CCCN2C(=O)CCc3ccc(F)cc32)CC1,–
87%,0.02 µM,CCC(=O)NC1CCN(CCCN2C(=O)CCc3cc(F)c(F)cc32)CC1,–

# The remaining lines, values behind:
SMILES,Emax [1],EC50 [2],other results
CCC(=O)NC1CCN(CCCN2C(=O)COc3ccccc32)CC1,78%,0.027 µM,–
O=C(Cc1ccccc1)NC1CCN(CCCN2C(=O)CCc3ccccc32)CC1,89%,0.048 µM,–
COc1ccc2c(c1)N(CCCN1CCC(NC(=O)Cc3ccccc3)CC1)C(=O)CC2,83%,0.12 µM,–
O=C(NC1CCN(CCCN2C(=O)COc3ccccc32)CC1)c1ccccc1,–,–,Emax [3]: 8%
O=C(NC1CCN(CCCN2C(=O)COc3ccccc32)CC1)C1CC1,74%,0.11 µM,–
CN(C(=O)Cc1ccccc1)C1CCN(CCCN2C(=O)COc3ccccc32)CC1,67%,0.91 µM,–
CC(C)C(=O)NC1CCN(CCCN2C(=O)COc3ccccc32)CC1,72%,0.046 µM,–
O=C(Cc1ccccc1)NC1CCN(CCCn2c(=O)oc3ccccc32)CC1,70%,1.1 µM,–
COc1cccc(CC(=O)NC2CCN(CCCN3C(=O)COc4ccccc43)CC2)c1,86%,0.13 µM,Emax [4]: 0%; Emax [5]: 0%; Emax [6]: 3%; Emax [7]: 6%
O=C(NC1CCN(CCCN2C(=O)COc3ccccc32)CC1)C1CCCCC1,–,–,Emax [3]: 3%
O=C(Cc1ccccc1)NC1CCN(CCCN2C(=O)CSc3ccccc32)CC1,79%,0.1 µM,–
O=C(Cc1ccccc1)NC1CCN(CCCN2C(=O)CCc3c(F)cccc32)CC1,77%,0.15 µM,–
CC(C)CC(=O)NC1CCN(CCCN2C(=O)COc3ccccc32)CC1,–,–,Emax [3]: 21%
O=C(Cc1ccccc1)NC1CCN(CCCN2C(=O)CCc3cccc(F)c32)CC1,75%,0.29 µM,–
Clc1ccc2c(c1)N=C(N1CCNCC1)c1ccccc1N2 [N-DESMETHYLCLOZAPINE],75%,0.018 µM,Emax [4]: 3%; Emax [5]: 10%; Emax [8]: 12%; EC50 [9]: 0.17 µM; Emax [10]: 34%; Ki [11]: 0.25 µM; Ki [12]: 0.09 µM; Emax [13]: 72%; EC50 [14]: 0.14 µM; Ki [15]: 0.051 µM
O=C(NC1CCN(CCCN2C(=O)COc3ccccc32)CC1)C1CCC1,37%,0.16 µM,–
Cc1ccccc1CN1CCC(N2CCC(n3c(=O)[nH]c4ccccc43)CC2)CC1,86%,–,Emax [5]: 1%; Emax [6]: 38%; Emax [7]: 5%; Ki [11]: 0.32 µM; Ki [16]: 0.085 µM; Ki [17]: 0.011 µM; Ki [18]: 0.019 µM; Ki [19]: 0.29 µM; Ki [15]: 0.94 µM
O=C(NC1CCN(CCCN2C(=O)COc3ccccc32)CC1)C1CCCC1,41%,0.35 µM,–
O=C(CCc1ccccc1)NC1CCN(CCCN2C(=O)COc3ccccc32)CC1,60%,0.97 µM,–
